Like-named read-outs stand apart in the source and are kept apart here. Where only a bound is given, the exact number is not on record here.

Data on 15 molecules can be found in US11878973B2, “Bicyclic compounds and their uses” (NOVARTIS AG, priority 2021, dated 2024).

One experiment deals with DLD1-WRN-KO cells. The experiment is described as follows: Proliferation assay DLD1-WRN-KO (CellTiterGlo, 96 hours; off-target effects). To be noted: read-out: Proliferation Assay DLD1-WRN-KO (GI50). On the technique in general: In ATP-based viability assays light output follows the ATP content of the culture.
In a further experiment the target is WRN helicase (Homo sapiens (Human), UniProt Q14191). The experiment is described as follows: In vitro enzymatic activity assay on WRN helicase (DNA dependent ATPase assay, ADP-Glo). Type of experiment: biochemical. Particulars: geometric means of at least 2 determinations; read-out: WRN ATPase Activity (IC50). The method in brief:
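DNA-dependent ATPase activity was measured by ADP-Glo luminescent ADP detection after a 30-min room-temperature reaction. The reaction contained 10 nM WRN (residues N517-P1238), 0.2 nM FLAP26 and 300 µM ATP at pH 7.5 with 2 mM MgCl2. Compounds were tested as 10-point half-log series in duplicate; IC50 values are geometric means from at least two independent experiments.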

Another experiment has as its system SW48 cells. Kind of experiment: Proliferation assay SW48 (CellTiterGlo, 96 hours).
Setting [1] is: Homo sapiens, SW48, read-out: Proliferation Assay SW48 (GI50).
Where [2] appears, read: DLD1-WRN-KO cell line, geometric means of at least 2 determinations.
Where [3] appears, read: read-out: Proliferation Assay SW48 (GI50), SW48 cell line, geometric means of at least 2 determinations.

Sequence of WRN helicase (Q14191 517-1238): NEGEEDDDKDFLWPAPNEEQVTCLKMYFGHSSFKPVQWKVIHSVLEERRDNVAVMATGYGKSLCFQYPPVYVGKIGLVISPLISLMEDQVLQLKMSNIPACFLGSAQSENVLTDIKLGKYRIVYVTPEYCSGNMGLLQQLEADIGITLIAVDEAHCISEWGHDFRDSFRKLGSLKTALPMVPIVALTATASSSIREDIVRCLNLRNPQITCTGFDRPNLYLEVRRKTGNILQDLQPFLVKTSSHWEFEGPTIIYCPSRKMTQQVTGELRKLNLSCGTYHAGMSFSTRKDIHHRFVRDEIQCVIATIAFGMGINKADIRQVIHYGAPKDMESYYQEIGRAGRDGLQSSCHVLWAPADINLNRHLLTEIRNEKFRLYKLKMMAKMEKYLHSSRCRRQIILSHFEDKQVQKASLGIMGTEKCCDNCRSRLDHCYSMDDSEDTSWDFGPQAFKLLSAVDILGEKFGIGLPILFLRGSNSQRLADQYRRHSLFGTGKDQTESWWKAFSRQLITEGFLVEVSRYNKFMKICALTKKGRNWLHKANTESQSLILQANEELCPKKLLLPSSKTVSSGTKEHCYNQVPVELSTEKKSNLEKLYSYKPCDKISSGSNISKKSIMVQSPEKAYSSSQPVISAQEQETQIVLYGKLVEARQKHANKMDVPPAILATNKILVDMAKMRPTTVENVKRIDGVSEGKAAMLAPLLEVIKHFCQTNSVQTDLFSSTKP

In the case of `CCc1c(N2CCN(C(=O)c3nccc(F)c3O)CC2)c(=O)n2nc(C3=CCOCC3)nc2n1CC(=O)Nc1ccc(C(F)(F)F)nc1Cl` [Example 48, N-(2-chloro-6-(trifluoromethyl)pyridin-3-yl)-2-(2-(3,6-dihydro-2H-pyran-4-yl)-5-ethyl-6-(4-(4-fluoro-3-hydroxypicolinoyl)piperazin-1-yl)-7-oxo-[1,2,4]triazolo[1,5-a]pyrimidin-4(7H)-yl)acetamide], the values for the GI50 with DLD1-WRN-KO cells (Homo sapiens) and in the experiment with SW48 cells (setting [1]) were greater than 10000 nM and 80 nM, respectively. Also, the IC50 at WRN helicase was 70 nM.
Consider `CCc1c(N2CCN(C(=O)c3ncccc3O)CC2)c(=O)n2nc(C3=CC[C@H](OC)CC3)nc2n1CC(=O)Nc1ccc(C(F)(F)F)cc1` (single isomer, unassigned) [Example 81b, ((R)-2-(5-ethyl-6-(4-(3-hydroxypicolinoyl)piperazin-1-yl)-2-(4-methoxycyclohex-1-en-1-yl)-7-oxo-[1,2,4]triazolo[1,5-a]pyrimidin-4(7H)-yl)-N-(4-(trifluoromethyl)phenyl)acetamide or ((S)-2-(5-ethyl-6-(4-(3-hydroxypicolinoyl)piperazin-1-yl)-2-(4-methoxycyclohex-1-en-1-yl)-7-oxo-[1,2,4]triazolo[1,5-a]pyrimidin-4(7H)-yl)-N-(4-(trifluoromethyl)phenyl)acetamide], for which the GI50 was greater than 10000 nM with DLD1-WRN-KO cells (setting [2]) and 60 nM in the experiment with SW48 cells (setting [3]). Further, on WRN helicase, the IC50 came out at 40 nM.
With `CCc1c(N2CCN(C(=O)c3ncnc(C)c3O)CC2)c(=O)n2nc(C3=CCOCC3)nc2n1CC(=O)Nc1ccc(C(F)(F)F)cc1` [Example 73, 2-(2-(3,6-dihydro-2H-pyran-4-yl)-5-ethyl-6-(4-(5-hydroxy-6-methylpyrimidine-4-carbonyl)piperazin-1-yl)-7-oxo-[1,2,4]triazolo[1,5-a]pyrimidin-4(7H)-yl)-N-(4-(trifluoromethyl)phenyl)acetamide], the GI50 was greater than 10000 nM with DLD1-WRN-KO cells (Homo sapiens) and 200 nM in the experiment on SW48 cells (setting [1]). Besides, the IC50 on WRN helicase turned out to be 70 nM.
On the same counts, the results for `CCc1c(N2CCN(C(=O)c3ncccc3O)CC2)c(=O)n2nc(C3=CC(=O)OCC3)nc2n1CC(=O)Nc1ccc(C(F)(F)F)cc1C` [Example 60, 2-(5-ethyl-6-(4-(3-hydroxypicolinoyl)piperazin-1-yl)-7-oxo-2-(6-oxo-3,6-dihydro-2H-pyran-4-yl)-[1,2,4]triazolo[1,5-a]pyrimidin-4(7H)-yl)-N-(2-methyl-4-(trifluoromethyl)phenyl)acetamide] are greater than 10000 nM, 880 nM and 240 nM.
Regarding `CCc1c(N2CCN(C(=O)c3ncccc3O)CC2)c(=O)n2nc(N3CCC[C@@H](F)C3)nc2n1CC(=O)Nc1ccc(C(F)(F)F)cc1Cl` (single isomer, unassigned) [Example 15a, ((R)—N-(2-chloro-4-(trifluoromethyl)phenyl)-2-(5-ethyl-2-(3-fluoropiperidin-1-yl)-6-(4-(3-hydroxypicolinoyl)piperazin-1-yl)-7-oxo-[1,2,4]triazolo[1,5-a]pyrimidin-4(7H)-yl)acetamide) or ((S)—N-(2-chloro-4-(trifluoromethyl)phenyl)-2-(5-ethyl-2-(3-fluoropiperidin-1-yl)-6-(4-(3-hydroxypicolinoyl)piperazin-1-yl)-7-oxo-[1,2,4]triazolo[1,5-a]pyrimidin-4(7H)-yl)acetamide)], the GI50 was greater than 10000 nM in the experiment with DLD1-WRN-KO cells (setting [2]) and 400 nM in the experiment on SW48 cells (setting [3]). Also, the IC50 on WRN helicase turned out to be 140 nM.
The matching figures for `CCc1c(N2CCN(C(=O)c3ncnc(C)c3O)[C@@H]3CC[C@@H]32)c(=O)n2nc(C3=CCOCC3)nc2n1CC(=O)Nc1ccc(C(F)(F)F)cc1Cl` (single isomer, unassigned) [Example 131]: greater than 10000 nM, 30 nM and 110 nM.
The matching figures for `CCc1c(N2CCN(C(=O)c3ncccc3O)CC2)c(=O)n2nc(C3=CC[C@H](OC)CC3)nc2n1CC(=O)Nc1ccc(C(F)(F)F)cc1C` (single isomer, unassigned) [Example 80a, ((R)-2-(5-ethyl-6-(4-(3-hydroxypicolinoyl)piperazin-1-yl)-2-(4-methoxycyclohex-1-en-1-yl)-7-oxo-[1,2,4]triazolo[1,5-a]pyrimidin-4(7H)-yl)-N-(2-methyl-4-(trifluoromethyl)phenyl)acetamide) or ((S)-2-(5-ethyl-6-(4-(3-hydroxypicolinoyl)piperazin-1-yl)-2-(4-methoxycyclohex-1-en-1-yl)-7-oxo-[1,2,4]triazolo[1,5-a]pyrimidin-4(7H)-yl)-N-(2-methyl-4-(trifluoromethyl)phenyl)acetamide)]: greater than 10000 nM, 70 nM and 70 nM.
For `CCc1c(N2CCN(C(=O)c3ncccc3O)CC2)c(=O)n2nc(N3CCCC3)nc2n1CC(=O)Nc1ccc(C(F)(F)F)nc1Cl` [Example 18, N-(2-chloro-6-(trifluoromethyl)pyridin-3-yl)-2-(5-ethyl-6-(4-(3-hydroxypicolinoyl)piperazin-1-yl)-7-oxo-2-(pyrrolidin-1-yl)-[1,2,4]triazolo[1,5-a]pyrimidin-4(7H)-yl)acetamide], the GI50 in the experiment on DLD1-WRN-KO cells (Homo sapiens) is greater than 10000 nM; in the experiment on SW48 cells (setting [1]) it was 260 nM. In addition, the IC50 on WRN helicase amounted to 180 nM.
The matching figures for `CCc1c(N2CCN(C(=O)c3ncnc(C)c3O)CC2)c(=O)n2nc(C3=CCOCC3)nc2n1CC(=O)Nc1ccc(C(F)(F)F)nc1Cl` [Example 47, N-(2-chloro-6-(trifluoromethyl)pyridin-3-yl)-2-(2-(3,6-dihydro-2H-pyran-4-yl)-5-ethyl-6-(4-(5-hydroxy-6-methylpyrimidine-4-carbonyl)piperazin-1-yl)-7-oxo-[1,2,4]triazolo[1,5-a]pyrimidin-4(7H)-yl)acetamide]: greater than 10000 nM, 170 nM and 140 nM.
On the same counts, the results for `Cc1ccnc(C(=O)N2CCN(c3c(C)n(CC(=O)Nc4ccc(C(F)(F)F)cc4)c4nc(C5=CCOCC5)nn4c3=O)CC2)c1O` [Example 90, 2-(2-(3,6-dihydro-2H-pyran-4-yl)-6-(4-(3-hydroxy-4-methylpicolinoyl)piperazin-1-yl)-5-methyl-7-oxo-[1,2,4]triazolo[1,5-a]pyrimidin-4(7H)-yl)-N-(4-(trifluoromethyl)phenyl)acetamide] are greater than 10000 nM, 300 nM and 130 nM.
On the same counts, the results for `CCc1c(N2CCN(C(=O)c3ncccc3O)CC2)c(=O)n2nc(C3=CCN(CC(F)F)CC3)nc2n1CC(=O)Nc1ccc(C(F)(F)F)cc1C` [Example 115, 2-(2-(1-(2,2-difluoroethyl)-1,2,3,6-tetrahydropyridin-4-yl)-5-ethyl-6-(4-(3-hydroxypicolinoyl)piperazin-1-yl)-7-oxo-[1,2,4]triazolo[1,5-a]pyrimidin-4(7H)-yl)-N-(2-methyl-4-(trifluoromethyl)phenyl)acetamide] are greater than 10000 nM, 200 nM and 170 nM.
With `CCc1c(N2CCN(C(=O)c3nccc(Cl)c3O)CC2)c(=O)n2nc(N3CCC[C@H](F)C3)nc2n1CC(=O)Nc1ccc(C(F)(F)F)cc1C` [Example 85, (S)-2-(6-(4-(4-chloro-3-hydroxypicolinoyl)piperazin-1-yl)-5-ethyl-2-(3-fluoropiperidin-1-yl)-7-oxo-[1,2,4]triazolo[1,5-a]pyrimidin-4(7H)-yl)-N-(2-methyl-4-(trifluoromethyl)phenyl)acetamide], the GI50 with DLD1-WRN-KO cells (Homo sapiens) was greater than 10000 nM; with SW48 cells (setting [1]) it was 110 nM. Further, the IC50 on WRN helicase was 70 nM.
On to `CCc1c(N2CCN(C(=O)c3ncnc(C)c3O)CC2)c(=O)n2nc(C3=CCN(C(=O)OC(C)(C)C)CC3)nc2n1CC(=O)Nc1ccc(C(F)(F)F)cc1C` [Example 130, tert-butyl 4-(5-ethyl-6-(4-(5-hydroxy-6-methylpyrimidine-4-carbonyl)piperazin-1-yl)-4-(2-((2-methyl-4-(trifluoromethyl)phenyl)amino)-2-oxoethyl)-7-oxo-4,7-dihydro-[1,2,4]triazolo[1,5-a]pyrimidin-2-yl)-3,6-dihydropyridine-1 (2H)-carboxylate], for which the GI50 with DLD1-WRN-KO cells (Homo sapiens) is greater than 10000 nM; in the experiment with SW48 cells (setting [1]) it was 50 nM. In addition, the IC50 on WRN helicase worked out at 100 nM.
In the case of `CCc1c(N2CCN(C(=O)c3nccc(F)c3O)CC2)c(=O)n2nc(C3=CCOCC3)nc2n1CC(=O)Nc1ccc(C(F)(F)F)cc1Cl` [Example 40, N-(2-chloro-4-(trifluoromethyl)phenyl)-2-(2-(3,6-dihydro-2H-pyran-4-yl)-5-ethyl-6-(4-(4-fluoro-3-hydroxypicolinoyl)piperazin-1-yl)-7-oxo-[1,2,4]triazolo[1,5-a]pyrimidin-4(7H)-yl)acetamide], the GI50 with DLD1-WRN-KO cells (Homo sapiens) is greater than 10000 nM; with SW48 cells (setting [1]), 30 nM. Moreover, the IC50 at WRN helicase worked out at 20 nM.
As to `CCc1c(N2CCN(C(=O)c3ncccc3O)CC2)c(=O)n2nc(C3=CCCCO3)nc2n1CC(=O)Nc1ccc(C(F)(F)F)cc1Cl` [Example 32, N-(2-chloro-4-(trifluoromethyl)phenyl)-2-(2-(3,4-dihydro-2H-pyran-6-yl)-5-ethyl-6-(4-(3-hydroxypicolinoyl)piperazin-1-yl)-7-oxo-[1,2,4]triazolo[1,5-a]pyrimidin-4(7H)-yl)acetamide], the GI50 is 7600 nM in the experiment with DLD1-WRN-KO cells (Homo sapiens) and 60 nM in the experiment with SW48 cells (setting [1]). The half-maximal inhibitory concentration (IC50) on WRN helicase came to 60 nM.

For orientation: IC50 means the midpoint of a concentration-inhibition curve.
